According to ChEMBL document CHEMBL3885861, “Open TG-GATES”:

Organism: Rattus norvegicus
Assay: Open TG-GATES - Regimen: Daily Repeat
Assay type: toxicity, organism-based, Sprague-Dawley
Set-up: regimen Daily Repeat, gender Male, age 6 weeks
Conditions: in vivo, po, 3 mg/kg, route gavage, dose level Low; for APTT / Bas / Eos / Fbg / Hb / Ht / Lym / MCH / MCHC / MCV / Mono / Neu / PT / Plat / RBC / Ret / WBC: tissue Blood; for KIDNEY_L / KIDNEY_R / KIDNEY_TOTAL: tissue Kidney; for LIVER: tissue Liver; for A/G / ALP / ALT / AST / BUN / CRE / Ca / Cl / DBIL / GLC / IP / K / LDH / Na / PL / RALB / TBIL / TC / TG / TP / gamma-GTP: tissue Plasma

Compound: C=CCO [ALLYL ALCOHOL]
- TERMINAL_BW (72 h, time 3 day): 238.5 g
- APTT (72 h, time 3 day): 20.1 s
- Bas (72 h, time 3 day): 0%
- Eos (72 h, time 3 day): 1.2%
- Fbg (72 h, time 3 day): 228.4 mg/dL
- Hb (72 h, time 3 day): 13.8 g/dL
- Ht (72 h, time 3 day): 40%
- Lym (72 h, time 3 day): 77.8%
- MCH (72 h, time 3 day): 20.8 pg
- MCHC (72 h, time 3 day): 34.5%
- MCV (72 h, time 3 day): 60.4 fL
- Mono (72 h, time 3 day): 2.8%
- Neu (72 h, time 3 day): 17.8%
- PT (72 h, time 3 day): 11.6 s
- Plat (72 h, time 3 day): 135.9 x10_4/uL
- RBC (72 h, time 3 day): 662 x10_4/ul
- Ret (72 h, time 3 day): 5.2%
- WBC (72 h, time 3 day): 117.9 x10_2/uL
- KIDNEY_L (72 h, time 3 day): 1 g
- KIDNEY_R (72 h, time 3 day): 1 g
- KIDNEY_TOTAL (72 h, time 3 day): 2 g
- LIVER (72 h, time 3 day): 11.5 g
- A/G (72 h, time 3 day): 1.6
- ALP (72 h, time 3 day): 1089.8 IU/L
- ALT (72 h, time 3 day): 37.6 IU/L
- AST (72 h, time 3 day): 63.8 IU/L
- BUN (72 h, time 3 day): 16.2 mg/dL
- CRE (72 h, time 3 day): 0.5 mg/dL
- Ca (72 h, time 3 day): 10.8 mg/dL
- Cl (72 h, time 3 day): 103.2 meq/L
- DBIL (72 h, time 3 day): 0.076 mg/dL
- GLC (72 h, time 3 day): 225.8 mg/dL
- IP (72 h, time 3 day): 7.1 mg/dL
- K (72 h, time 3 day): 4.3 meq/L
- LDH (72 h, time 3 day): 204.6 IU/L
- Na (72 h, time 3 day): 140.4 meq/L
- PL (72 h, time 3 day): 153 mg/dL
- RALB (72 h, time 3 day): 3.4 g/dL
- TBIL (72 h, time 3 day): 0.1 mg/dL
- TC (72 h, time 3 day): 79.2 mg/dL
- TG (72 h, time 3 day): 91.6 mg/dL
- TP (72 h, time 3 day): 5.6 g/dL
- gamma-GTP (72 h, time 3 day): 0.6 IU/L
- TERMINAL_BW ([…], time 7 day): 274.1 g
- TERMINAL_BW ([…], time 14 day): 304.7 g
- TERMINAL_BW ([…], time 28 day): 380.5 g
- APTT ([…], time 7 day): 19.5 s
- Bas ([…], time 7 day): 0%
- Eos ([…], time 7 day): 1%
- Fbg ([…], time 7 day): 220.8 mg/dL
- Hb ([…], time 7 day): 13.7 g/dL
- Ht ([…], time 7 day): 40.3%
- Lym ([…], time 7 day): 80.6%
- MCH ([…], time 7 day): 20.5 pg
- MCHC ([…], time 7 day): 34%
- MCV ([…], time 7 day): 60.4 fL
- Mono ([…], time 7 day): 2.6%
- Neu ([…], time 7 day): 15.8%
- PT ([…], time 7 day): 11.9 s
- Plat ([…], time 7 day): 135 x10_4/uL
- RBC ([…], time 7 day): 667.2 x10_4/ul
- Ret ([…], time 7 day): 5.1%
- WBC ([…], time 7 day): 128.3 x10_2/uL
- APTT ([…], time 14 day): 20.1 s
- Bas ([…], time 14 day): 0%
- Eos ([…], time 14 day): 1.4%
- Fbg ([…], time 14 day): 225.8 mg/dL
- Hb ([…], time 14 day): 14.5 g/dL
- Ht ([…], time 14 day): 42%
- Lym ([…], time 14 day): 85.4%
- MCH ([…], time 14 day): 20.3 pg
- MCHC ([…], time 14 day): 34.6%
- MCV ([…], time 14 day): 58.7 fL
- Mono ([…], time 14 day): 2.4%
- Neu ([…], time 14 day): 10.6%
- PT ([…], time 14 day): 12 s
- Plat ([…], time 14 day): 113.9 x10_4/uL
- RBC ([…], time 14 day): 715.2 x10_4/ul
- Ret ([…], time 14 day): 3.5%
- WBC ([…], time 14 day): 110.3 x10_2/uL
- APTT ([…], time 28 day): 20.8 s
- Bas ([…], time 28 day): 0%
- Eos ([…], time 28 day): 1%
- Fbg ([…], time 28 day): 216.8 mg/dL
- Hb ([…], time 28 day): 15.2 g/dL
- Ht ([…], time 28 day): 43.8%
- Lym ([…], time 28 day): 80%
- MCH ([…], time 28 day): 19.3 pg
- MCHC ([…], time 28 day): 34.7%
- MCV ([…], time 28 day): 55.5 fL
- Mono ([…], time 28 day): 2.2%
- Neu ([…], time 28 day): 16%
- PT ([…], time 28 day): 12 s
- Plat ([…], time 28 day): 106.9 x10_4/uL
- RBC ([…], time 28 day): 787.6 x10_4/ul
- Ret ([…], time 28 day): 2.7%
- WBC ([…], time 28 day): 103.8 x10_2/uL
- KIDNEY_L ([…], time 7 day): 1.1 g
- KIDNEY_R ([…], time 7 day): 1.1 g
- KIDNEY_TOTAL ([…], time 7 day): 2.2 g
- KIDNEY_L ([…], time 14 day): 1.2 g
- KIDNEY_R ([…], time 14 day): 1.1 g
- KIDNEY_TOTAL ([…], time 14 day): 2.3 g
- KIDNEY_L ([…], time 28 day): 1.3 g
- KIDNEY_R ([…], time 28 day): 1.4 g
- KIDNEY_TOTAL ([…], time 28 day): 2.7 g
- LIVER ([…], time 7 day): 13 g
- LIVER ([…], time 14 day): 13 g
- LIVER ([…], time 28 day): 15.8 g
- A/G ([…], time 7 day): 1.6
- ALP ([…], time 7 day): 883.8 IU/L
- ALT ([…], time 7 day): 31.2 IU/L
- AST ([…], time 7 day): 61.4 IU/L
- BUN ([…], time 7 day): 16.2 mg/dL
- CRE ([…], time 7 day): 0.4 mg/dL
- Ca ([…], time 7 day): 10.9 mg/dL
- Cl ([…], time 7 day): 101.6 meq/L
- DBIL ([…], time 7 day): 0.088 mg/dL
- GLC ([…], time 7 day): 221.4 mg/dL
- IP ([…], time 7 day): 6.9 mg/dL
- K ([…], time 7 day): 4.1 meq/L
- LDH ([…], time 7 day): 192 IU/L
- Na ([…], time 7 day): 141 meq/L
- PL ([…], time 7 day): 145.6 mg/dL
- RALB ([…], time 7 day): 3.5 g/dL
- TBIL ([…], time 7 day): 0.1 mg/dL
- TC ([…], time 7 day): 70.4 mg/dL
- TG ([…], time 7 day): 120.6 mg/dL
- TP ([…], time 7 day): 5.8 g/dL
- gamma-GTP ([…], time 7 day): 0.8 IU/L
- A/G ([…], time 14 day): 1.5
- ALP ([…], time 14 day): 736.6 IU/L
- ALT ([…], time 14 day): 39 IU/L
- AST ([…], time 14 day): 60.2 IU/L
- BUN ([…], time 14 day): 16.2 mg/dL
- CRE ([…], time 14 day): 0.4 mg/dL
- Ca ([…], time 14 day): 10.6 mg/dL
- Cl ([…], time 14 day): 102.6 meq/L
- DBIL ([…], time 14 day): 0.07 mg/dL
- GLC ([…], time 14 day): 222.2 mg/dL
- IP ([…], time 14 day): 6.3 mg/dL
- K ([…], time 14 day): 3.6 meq/L
- LDH ([…], time 14 day): 214.8 IU/L
- Na ([…], time 14 day): 141.2 meq/L
- PL ([…], time 14 day): 143 mg/dL
- RALB ([…], time 14 day): 3.5 g/dL
- TBIL ([…], time 14 day): 0.1 mg/dL
- TC ([…], time 14 day): 74.8 mg/dL
- TG ([…], time 14 day): 86.6 mg/dL
- TP ([…], time 14 day): 5.9 g/dL
- gamma-GTP ([…], time 14 day): 1.2 IU/L
- A/G ([…], time 28 day): 1.2
- ALP ([…], time 28 day): 620 IU/L
- ALT ([…], time 28 day): 35.8 IU/L
- AST ([…], time 28 day): 57.8 IU/L
- BUN ([…], time 28 day): 15.2 mg/dL
- CRE ([…], time 28 day): 0.5 mg/dL
- Ca ([…], time 28 day): 10.4 mg/dL
- Cl ([…], time 28 day): 102.8 meq/L
- DBIL ([…], time 28 day): 0.076 mg/dL
- GLC ([…], time 28 day): 218.2 mg/dL
- IP ([…], time 28 day): 5.8 mg/dL
- K ([…], time 28 day): 3.7 meq/L
- LDH ([…], time 28 day): 210.8 IU/L
- Na ([…], time 28 day): 139.8 meq/L
- PL ([…], time 28 day): 138.6 mg/dL
- RALB ([…], time 28 day): 3.4 g/dL
- TBIL ([…], time 28 day): 0.1 mg/dL
- TC ([…], time 28 day): 65.8 mg/dL
- TG ([…], time 28 day): 114.4 mg/dL
- TP ([…], time 28 day): 6.2 g/dL
- gamma-GTP ([…], time 28 day): 0.6 IU/L
